According to patent US11234957B2, “Process for preparing water soluble forskolin” (SciPharm S.à.r.l., priority 2017, dated 2022):
Where two headings read alike, the source gives them in different places.

Assays:
[1] = Maximum solubility of forskolin in aqueous hydroxypropyl-cyclodextrin solutions (Laurenza et al., 1987); format: physicochemical
Text: Aqueous solutions of forskolin had also been produced by dissolving forskolin in solutions of hydroxypropyl-γ-cyclodextrin.

[2] = cited from earlier work
adenylyl cyclase = experiment: Cell culture test - cAMP assay; format: cell-based; conditions: versus forskolin dissolved in DMSO; FIG. 4 and summary
Method: The method was performed at the Institute of Pharmacology, Medical University […] of Vienna, Prof. Michael Freissmuth. The forskolin-CD complex was compared with an established method, where forskolin is dissolved and diluted in DMSO. The method has been described previously (Hussain F, et al., BMC Pharmacology 11 (2013), Suppl 2, A6) and is a test platform for the assessment of the chemical induction of stem cells.
Also, the lack of DMSO, which is considered to be a PDE inhibitor (see above), had no […] effect on the results based on preliminary theoretical and practical aspects. The following batches were tested in aliquot molar concentrations as an activator of adenylyl cyclase: […]

Row | Structure (SMILES) | increase of solubility ([1]; in 40% (w/v) hydroxypropyl-ß-cyclodextrin) | increase of solubility ([1]; in 40% (w/v) hydroxypropyl-γ-cyclodextrin) | Maximum solubility of forskolin ([2]; in 40% (w/v) aqueous solution of hydroxypropyl-ß-cyclodextrin) [mM] | Maximum solubility of forskolin ([2]; in 40% (w/v) aqueous solution of hydroxypropyl-γ-cyclodextrin) [mM] | activation of adenylyl cyclase (adenylyl cyclase)
1 | C=C[C@@]1(C)CC(=O)[C@]2(O)[C@@]3(C)[C@@H](O)CCC(C)(C)[C@@H]3[C@H](O)[C@H](OC(C)=O)[C@@]2(C)O1 [forskolin, 7-beta-acetoxy-8,13-epoxy-1-alpha, 6-beta, 9-alpha-trihydroxylabd-14-en-11-one] | approx. 16 fold | approx. 65 fold | 2.5 | 9.8 | –
2 | COC(=O)[C@@H]1C[C@H](OC(C)=O)C(=O)[C@H]2[C@@]1(C)CC[C@H]1C(=O)O[C@H](c3ccoc3)C[C@]21C [salvinorin A] | – | – | – | – | Inactive
3 | COC(=O)[C@@H]1C[C@H](O)C(=O)[C@H]2[C@@]1(C)CC[C@H]1C(=O)O[C@H](c3ccoc3)C[C@]21C [salvinorin B] | – | – | – | – | Inactive
